Experimental data as given in patent US8323627B2, “Monoester of N-undecylenoyl phenylalanine and polyol, method for preparing same, and use of said esters as a skin lightening agent” (Societe d'Exploitation de Produits pour les Industries …, priority 2008, dated 2012).

Assays:
B16/F1 melanocytes [1] = assay: Inhibition of extracellular melanin production in B16/F1 melanocyte cultures; assay type: cell-based, Mouse; settings: for % Inhibition of extracellular melanin production relative to the control / Extracellular melanin (control: 98 μg ± 4 μg/ml): 72 hours incubation; for Depigmenting effect (summary in text of Table 1): B16/F1 melanocytes, doses of Table 1
Procedure: The influence of N-undecylenoyl phenylalanine monoglyceride, arbutin and N-undecylenoyl phenylalanine on the production of extracellular melanin, in B16/F1 melanocyte cultures, was compared.
Mouse melanocytes of the B16/F1 line cultured as monolayers are seeded in 96-well culture plates at a density of 1500 cells/well. The cells are cultured in a culture medium (MCM medium) at 37° C. under a humid atmosphere containing 5% CO2. The cells are used at 50% of confluence. The MCM medium has the following composition: DMEM medium (Dulbecco's Modified Eagle's Medium) containing 4.5 g/l of glucose supplemented with L-glutamine (2 mM), penicillin (50 IU/ml), streptomycin (50 μg/ml) and fetal calf serum (10% v/v). […] The melanocyte cultures are incubated in the presence of the test product or of the reference products for 72 hours at 37° C., under a humid atmosphere containing 5% CO2. Control cultures are incubated, in the absence of product, in the MCM medium. These control cultures are prepared on each culture plate. Each test is performed six times. After incubation for 72 hours, the incubation media of the cells (n=6) are taken up and stored at −80° C. until the time of evaluation of the effects. The extracellular melanin is quantified by spectrophotometry at 450 nm. A melanin calibration range is prepared in parallel. The results are expressed as μg/ml of extracellular melanin and as a percentage of inhibition relative to the control group in Table 1 below.

B16/F1 melanocytes [2] = assay: Cytotoxic effect in B16/F1 melanocyte cultures (Bradford total protein); assay type: cell-based, Mouse; settings: for Cytotoxic effects (summary of Table 2): B16/F1 melanocytes, doses of Table 2; for % Decrease of the total amount of protein relative to the control / Evaluation (cytotoxicity): 72 hours incubation
Procedure: Study of the Cytotoxic Effect of the Compound of Formula (I) in B16/F1 melanocyte Cultures
Evaluation of the presence of cytotoxic effects is performed using the Bradford technique by staining with Coomassie blue (Bradford M., “A rapid and sensitive method for the quantification of microgram quantities of protein utilizing the principle of protein-dye binding”, Anal. Biochem., 1976, 72, 248-254). The B16/F1 melanocytes are incubated after seeding with the dilutions of the test products. After 72 hours of incubation, the B16/F1 melanocytes are washed and then lyzed, and Bradford's reagent is then added. After incubation for 5 minutes at room temperature, a spectrophotometric reading is taken at 640 nm in parallel with an albumin calibration range. The cytotoxicity is proven for a decrease greater than or equal to 20% of the total amount of protein. The results are expressed as a percentage decrease of the total amount of protein, in Table 2 below.

SMILES	% Inhibition of extracellular melanin production relative to the control (B16/F1 melanocytes [1]; test product 40 μg/ml)	Extracellular melanin (control: 98 μg ± 4 μg/ml) (B16/F1 melanocytes [1]; test product 40 μg/ml, n=6)	Cytotoxic effects (summary of Table 2) (B16/F1 melanocytes [2])	% Decrease of the total amount of protein relative to the control (B16/F1 melanocytes [2]; test product 60 μg/ml)	% Decrease of the total amount of protein relative to the control (B16/F1 melanocytes [2]; test product 80 μg/ml)	Depigmenting effect (summary in text of Table 1) (B16/F1 melanocytes [1])	% Inhibition of extracellular melanin production relative to the control (B16/F1 melanocytes [1]; test product 80 μg/ml)	Extracellular melanin (control: 98 μg ± 4 μg/ml) (B16/F1 melanocytes [1]; test product 80 μg/ml)	% Decrease of the total amount of protein relative to the control (B16/F1 melanocytes [2]; test product 40 μg/ml)	% Decrease of the total amount of protein relative to the control (B16/F1 melanocytes [2]; test product 50 μg/ml)	Evaluation (cytotoxicity) (B16/F1 melanocytes [2]; test product 50 μg/ml)	Evaluation (cytotoxicity) (B16/F1 melanocytes [2]; test product 80 μg/ml)
OC[C@H]1O[C@@H](Oc2ccc(O)cc2)[C@H](O)[C@@H](O)[C@@H]1O [Arbutin, reference compound]	61%	39 ± 3 µg/mL	–	–	–	–	–	–	–	–	–	–
C=CCCCCCCCCC(=O)NC(Cc1ccccc1)C(=O)OCC(O)COCC(O)CO (stereo not shown) [Compound (B), N-undecylenoyl phenylalanine diglyceryl ester]	–	–	absence of cytotoxic effects	No observed decrease	No observed decrease	depigmenting effect	34%	54 ± 3 µg/mL	–	–	–	–
C=CCCCCCCCCC(=O)NC(Cc1ccccc1)C(=O)OCC(O)CO (stereo not shown) [Compound (A), N-undecylenoyl phenylalanine monoglyceride]	15%	84 ± 8 µg/mL	absence of cytotoxic effects	–	No observed decrease	depigmenting effect	58%	42 ± 1 µg/mL	No observed decrease	–	–	–
C=CCCCCCCCCC(=O)N[C@@H](Cc1ccccc1)C(=O)O [N-Undecylenoyl phenylalanine, N-undecylenoyl phenylalanine]	40%	59 ± 3 µg/mL	cytotoxic	–	80%	–	Cytotoxicity	Cytotoxicity	–	32%	Cytotoxic (The cytotoxicity is proven for a decrease greater than or equal to 20% of the total amount of protein)	Cytotoxic (The cytotoxicity is proven for a decrease greater than or equal to 20% of the total amount of protein)
